Results: article PMC4992173, “Divergent synthesis and identification of the cellular targets of deoxyelephantopins” (Nature Communications, 2016)

Key:
wt PPARG = target: T1, wt PPARG (Homo sapiens, UniProt P37231); assay: Gel-based competitive IC50 determination in 293T lysates: WT PPARγ; format: binding; details: wt PPARG expressed in 293T cells, lysate, 1 h, then 10 μM 24c-Cy3
T1 construct: host or cells: 293T
Text: (§1) Finally, we sought to understand the molecular basis for PPARγ binding by the synthetic analogues of deoxyelephantopin through identification of the precise covalently modified amino acid site. There is literature precedent for oxidized fatty acids containing an α,β-unsaturated ketone to form a covalent bond with a cysteine in the ligand-binding site of PPARγ[53]. More recently, synthetic ligands binding reversibly to a distinct site were identified. […] Bearing in mind that the structurally simplified, and thus less prone to MS/MS fragmentation, probe 23c binds PPARγ as efficiently as 24c (Supplementary Fig. 13), we treated the recombinant nuclear receptor with the former compound, digested the protein and analysed the resulting peptides by LC–MS/MS. […]
Supplementary figure 21: Top: Fluorescence gels corresponding to the IC50 curves presented in the main text Figure 8b. γ fluorescence signal in percentage after 19a treatment. […]
Biological materials. […] Protein concentration was determined using the Bradford assay (Bio-Rad).
Cell culture and preparation of lysates. […] Cells were lysed by sonication to form cell lysates and protein concentration was determined using the Bradford […]

PPARγ = target: T2, PPARγ (Homo sapiens, UniProt P37231); assay: Detection of a covalent adduct on human PPARγ (LC-MS/MS); format: binding; design: purchased Cayman Chemical; details: 100 μM, 1 h, tryptic digest LC-MS/MS
T2 sequence (P37231 1-505): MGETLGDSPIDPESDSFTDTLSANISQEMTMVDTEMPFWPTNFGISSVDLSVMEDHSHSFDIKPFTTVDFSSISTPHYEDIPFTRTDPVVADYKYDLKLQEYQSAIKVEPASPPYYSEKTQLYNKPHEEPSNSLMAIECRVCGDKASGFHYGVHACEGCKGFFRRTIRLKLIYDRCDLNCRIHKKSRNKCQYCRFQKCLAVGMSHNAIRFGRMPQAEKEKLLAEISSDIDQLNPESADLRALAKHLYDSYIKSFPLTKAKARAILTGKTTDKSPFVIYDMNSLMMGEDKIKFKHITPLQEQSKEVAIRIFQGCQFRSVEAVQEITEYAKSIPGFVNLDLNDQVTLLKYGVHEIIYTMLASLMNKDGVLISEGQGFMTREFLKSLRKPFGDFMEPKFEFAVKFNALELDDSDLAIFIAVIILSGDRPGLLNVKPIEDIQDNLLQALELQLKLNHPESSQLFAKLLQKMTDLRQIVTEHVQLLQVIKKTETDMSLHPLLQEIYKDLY
Text: as §1
Recombinant human PPARγ (500 ng in 9 μl PBS) was treated with 100 μM of 23c (1 μl of 10 × stock in DMSO) or DMSO for 1 h. […] Samples were resuspended in 0.1% FA in water and analysed by LC–MS/MS. The theoretical mass of the 23c adduct was calculated and LC–MS/MS was run with an inclusion list containing m/z and charge of the expected peptides. MS data were analysed in MaxQuant with 23c (+256.1099 Da) and carbamidomethylation as variable modifications on cysteine. […]

| IC50 (wt PPARG) [µM] | SMILES | protein site covalently modified (PPARγ) |
| --- | --- | --- |
| 19 | C=C(C)C(=O)O[C@H]1CC2=C[C@H](C/C=C\[C@H]3OC(=O)C(=C)[C@H]13)OC2=O [19a] |  |
|  | C#CCC[C@H](O)[C@H]1C(=C)C(=O)O[C@@H]1c1ccccc1 [23c] | Cys190 |
